pKi: −log10 of the molar value.

The results in this text go back to patent US9981909B2 (Janssen Pharmaceutica NV, priority 2008, dated 2018).

rat 5-HT7 receptor, sequence (P32305 1-435): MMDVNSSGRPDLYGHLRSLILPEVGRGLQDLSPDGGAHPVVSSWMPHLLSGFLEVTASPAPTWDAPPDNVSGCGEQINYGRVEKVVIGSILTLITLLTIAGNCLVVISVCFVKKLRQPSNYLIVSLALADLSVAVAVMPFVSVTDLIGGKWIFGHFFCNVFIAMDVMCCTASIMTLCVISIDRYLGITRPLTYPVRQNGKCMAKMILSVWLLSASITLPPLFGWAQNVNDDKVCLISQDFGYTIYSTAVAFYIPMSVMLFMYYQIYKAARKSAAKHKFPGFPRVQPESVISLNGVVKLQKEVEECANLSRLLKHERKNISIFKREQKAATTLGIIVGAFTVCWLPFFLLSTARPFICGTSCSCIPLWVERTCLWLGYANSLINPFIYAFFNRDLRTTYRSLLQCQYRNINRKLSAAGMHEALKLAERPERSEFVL

For the first experiment, the target named is rat 5-HT7 receptor (Rattus norvegicus (Rat), UniProt P32305). In words: r5-HT7 binding assay, competitive radioligand binding with [3H]5-CT. The note with it: rat 5-HT7, HEK-293 membranes. The procedure:
Receptor binding was performed using membrane fractions prepared from the HEK-293 cell line recombinantly expressing rat 5-HT7 receptors (NCBI accession NM_022938). Compound affinity for the rat 5-HT7 receptor subtype was evaluated by competitive radioligand binding assays using 5-carboxamido[^3H]tryptamine ([^3H]5-CT) (Amersham Biosciences, cat. 90000403) detection. HitHunter™ cAMP assays are in-vitro based competitive immunoassays. The assay was performed on the HEK-293 cell line stably transfected with r5-HT7 receptor. Cells were pre-incubated with test compounds for 10 minutes. For antagonist testing, the cells were then challenged with 100 nM 5-CT for 20 minutes. Cells were then lysed and cAMP measured according to manufacturers protocol (Amersham, cat. NET791250UC) or [^3H]mesulergine (Amersham, cat. TRK1041). The assay was performed on membranes prepared from HEK-293 cells stably transfected with h5-HT6. Following centrifugation, membranes were resuspended and incubated for 60 min at room temperature with 1.7 nM [^3H]LSD in the presence of increasing concentration of test compounds. Nonspecific binding was defined in the presence of 10 μM clozapine (Tocris, cat. TRK1068). Homogenized HEK-293 membranes expressing the human SERT were incubated in 50 mM Tris-HCl (pH 7.5), 120 mM NaCl, 5 mM KCl with [^3H]-citalopram (3 nM) with or without test compounds. Nonspecific binding was determined in the presence of 10 μM fluoxetine. Radioactivity readouts and Ki values were performed as previously described for r5-HT7. […] Compounds were assayed in their free form or as salts, as indicated in the Examples section above.
A word on the pKi: it is the negative decadic logarithm of the Ki, by convention in mol/L. A high value points to a small Ki. In turn, `CC(C)N1CC(Oc2cc(Br)ccc2C(=O)c2ccc3c(c2)OCO3)C1` [Example 290, Benzo[1,3]dioxol-5-yl-[4-bromo-2-(1-isopropyl-azetidin-3-yloxy)-phenyl]-methanone] showed a pKi of 6.84.

As for `CC(C)N1CC(Oc2cc(Br)ccc2C(=O)c2ccc3ccccc3c2)C1` [Example 288, [4-Bromo-2-(1-isopropyl-azetidin-3-yloxy)-phenyl]-naphthalen-2-yl-methanone], the pKi was 7.23.

In the case of `CC(C)N1CC(Oc2cc(Cl)ccc2C(=O)c2ccc3c(c2)OCO3)C1` [Example 296, Benzo[1,3]dioxol-5-yl-[4-chloro-2-(1-isopropyl-azetidin-3-yloxy)-phenyl]-methanone], the pKi was 6.74.

Consider `CN1CC(COc2cc(Br)ccc2OCc2cccc(Cl)c2)C1` [Example 234, 3-[5-Bromo-2-(3-chloro-benzyloxy)-phenoxymethyl]-1-methyl-azetidine], for which the pKi was 6.89.

`Clc1ccc(OCc2nc(C3CCC3)no2)c(OC2CNC2)c1` [Example 240, 5-[2-(Azetidin-3-yloxy)-4-chloro-phenoxymethyl]-3-cyclobutyl-[1,2,4]oxadiazole]: the pKi was 6.60.

On to `CC(C)N1CC(Oc2ccc(Cl)cc2OC2CN(C(C)C)C2)C1` [Example 227, 3-[5-Chloro-2-(1-Isopropyl-azetidin-3-ol)-phenoxy]-1-isopropyl-azetidine], for which the pKi is 6.47.

`Brc1ccc(Oc2ccc(Br)cc2OC2CNC2)cc1` [Example 250, 3-[5-Bromo-2-(4-bromo-phenoxy)-phenoxy]-azetidine] showed a pKi of 7.77.

The molecule `Brc1ccc(Oc2cccc3ccccc23)c(OC2CNC2)c1` [Example 255, 3-[5-Bromo-2-(naphthalen-1-yloxy)-phenoxy]-azetidine] showed a pKi of 6.71.

With `CC1(Oc2cc(Br)ccc2Oc2ccccc2)CNC1` [Example 218, 3-(5-Bromo-2-phenoxy-phenoxy)-3-methyl-azetidine], the pKi is 7.16.

With `Clc1ccc(Oc2ccccc2)c(OC2CCNCC2)c1` [Example 265, 4-(5-Chloro-2-phenoxy-phenoxy)-piperidine], the pKi is 6.89.

With `Clc1ccc(Oc2nc3ccccc3s2)c(OC2CNC2)c1` [Example 261, 2-[2-(Azetidin-3-yloxy)-4-chloro-phenoxy]-benzothiazole], the pKi was 5.79.

Staying with this experiment, now noted: rat 5-HT7 receptor, HEK-293 membranes.
`CC(C)N1CC(Oc2ccc(Br)cc2OCc2cccc(Cl)c2)C1` [Example 24, 3-[4-Bromo-2-(3-chloro-benzyloxy)-phenoxy]-1-isopropyl-azetidine]: the pKi was 6.72.

In turn, `FC(F)(F)Sc1ccc(COc2ccc(Cl)cc2OC2CNC2)cc1` [Example 46, 3-[5-Chloro-2-(4-trifluoromethylsulfanyl-benzyloxy)-phenoxy]-azetidine] gave a pKi of 6.99.

In turn, `CC(Oc1ccc(Cl)cc1OC1CNC1)c1nccs1` (stereo not shown) [Example 133, 2-[1-[2-(Azetidin-3-yloxy)-4-chloro-phenoxy]-ethyl]-thiazole] had a pKi of 6.23.

In the case of `C[C@@H](Oc1ccc(Cl)cc1OC1CCCNC1)c1cccc(C(F)(F)F)c1` (stereo partly drawn) [Example 139, (R,S)-3-[5-Chloro-2-[1-((R)-3-trifluoromethyl-phenyl)-ethoxy]-phenoxy]-piperidine], the pKi was 6.72.

For `Clc1cccc(COc2ccc(-c3ccsc3)cc2OC2CNC2)c1` [Example 210, 3-[2-(3-Chloro-benzyloxy)-5-thiophen-3-yl-phenoxy]-azetidine], the pKi is 6.30.

With `FCC(Oc1ccc(Cl)cc1OC1CNC1)c1ccccc1` (stereo not shown) [Example 143, 3-[5-Chloro-2-(2-fluoro-1-phenyl-ethoxy)-phenoxy]-azetidine], the pKi was 6.67.

As for `Clc1ccc(OCc2nccs2)c(OC2CNC2)c1` [Example 88, 2-[2-(Azetidin-3-yloxy)-4-chloro-phenoxymethyl]-thiazole], the pKi was 6.17.

In turn, `CN1CCC(Oc2ccccc2OCc2cccc(OS(C)(=O)=O)c2)C1` (racemic) [Example 100, (±)-Methanesulfonic acid 3-[2-(1-methyl-pyrrolidin-3-yloxy)-phenoxymethyl]-phenyl ester] gave a pKi of 6.82.

The molecule `Fc1ccc(COc2ccc(Cl)cc2OC2CNC2)c(F)c1` [Example 57, 3-[5-Chloro-2-(2,4-difluoro-benzyloxy)-phenoxy]-azetidine] gave a negative-log Ki (pKi) of 7.38.

`CC(Oc1ccc(Cl)cc1OC1CCNCC1)c1cccc(OC(F)(F)F)c1` (racemic) [Example 137, (±)-4-[5-Chloro-2-[1-(3-trifluoromethoxy-phenyl)-ethoxy]-phenoxy]-piperidine] showed a pKi of 6.33.

In turn, `Clc1ccc(OCC2COc3ccccc3C2)c(OC2CNC2)c1` (stereo not shown) [Example 167, 3-[5-Chloro-2-(chroman-3-ylmethoxy)-phenoxy]-azetidine] gave a pKi of 6.78.

`Clc1ccc(OCC2CCCO2)c(OC2CNC2)c1` (stereo not shown) [Example 166, 3-[5-Chloro-2-(tetrahydro-furan-2-ylmethoxy)-phenoxy]-azetidine] showed a pKi of 5.90.

For the molecule `COc1cccc(COc2ccc(Br)cc2OC2CCN(C)C2)c1` (racemic) [Example 96, (±)-3-[5-Bromo-2-(3-methoxy-benzyloxy)-phenoxy]-1-methyl-pyrrolidine], the pKi was 7.89.

Regarding `FCC(Oc1ccc(Cl)cc1OC1CCNCC1)c1ccccc1` (racemic) [Example 144, (±)-4-[5-Chloro-2-(2-fluoro-1-phenyl-ethoxy)-phenoxy]-piperidine], the pKi is 6.52.

Take `Cc1cc(COc2ccc(Cl)cc2OC2CNC2)c(C(F)(F)F)o1` [Example 78, 3-[5-Chloro-2-(5-methyl-2-trifluoromethyl-furan-3-ylmethoxy)-phenoxy]-azetidine]: the pKi is 6.15.

Turning to `CC(Oc1ccc(Cl)cc1OC1CNC1)c1cccc(OC(F)(F)F)c1` (racemic) [Example 127, (±)-3-[5-Chloro-2-[1-(3-trifluoromethoxy-phenyl)-ethoxy]-phenoxy]azetidine], the negative-log Ki (pKi) is 7.20.

Molecule `Clc1ccc(OCc2ccccc2Cl)c(O[C@@H]2CCNC2)c1` [Example 60, (R)-3-[5-Chloro-2-(2-chloro-benzyloxy)-phenoxy]-pyrrolidine] showed a pKi of 6.60.

Turning to `C[C@H](Oc1ccc(Cl)cc1OC1CN(Cc2ccccc2)C1)c1cccc(C(F)(F)F)c1` [Example 104, (S)-1-Benzyl-3-[5-chloro-2-[1-(3-trifluoromethyl-phenyl)-ethoxy]-phenoxy]-azetidine], the pKi is 6.78.

As to `Fc1cc(Cl)cc(OC2CNC2)c1OCc1ccc(C(F)(F)F)o1` [Example 198, 3-[5-Chloro-3-fluoro-2-(5-trifluoromethyl-furan-2-ylmethoxy)-phenoxy]-azetidine], the pKi is 5.84.

The molecule `Cc1cc(COc2ccc(Cl)cc2OC2CNC2)no1` [Example 30, 3-[2-(Azetidin-3-yloxy)-4-chloro-phenoxymethyl]-5-methyl-isoxazole] had a pKi of 6.98.

On to `Fc1cc(Cl)cc(OC2CNC2)c1OCc1ccccc1` [Example 197, 3-(2-Benzyloxy-5-chloro-3-fluoro-phenoxy)-azetidine], for which the pKi is 5.85.

As for `CC(Oc1ccc(Cl)cc1OC1CN(C(C)C)C1)c1cccc(C(F)(F)F)c1` (racemic) [Example 106, (±)-3-[5-Chloro-2-[1-(3-trifluoromethyl-phenyl)-ethoxy]-phenoxy]-1-isopropyl-azetidine], the pKi is 7.12.

As to `Cc1nc(C(F)(F)F)ccc1COc1ccc(Cl)cc1OC1CNC1` [Example 80, 3-[2-(Azetidin-3-yloxy)-4-chloro-phenoxymethyl]-2-methyl-6-trifluoromethyl-pyridine], the pKi was below 5.00.

Regarding `N#Cc1ccc(COc2ccc(Cl)cc2OC2CNC2)cc1` [Example 44, 4-[2-(Azetidin-3-yloxy)-4-chloro-phenoxymethyl]-benzonitrile], the pKi was 7.06.

In turn, `FC(F)(F)Oc1ccc(COc2ccc(Cl)cc2OC2CNC2)cc1Cl` [Example 41, 3-[5-Chloro-2-(3-chloro-4-trifluoromethoxy-benzyloxy)-phenoxy]-azetidine] showed a pKi of 6.89.

For `CC(Oc1ccc(Cl)cc1OC1CN(C2CCC2)C1)c1cccc(C(F)(F)F)c1` (racemic) [Example 107, (±)-3-[5-Chloro-2-[1-(3-trifluoromethyl-phenyl)-ethoxy]-phenoxy]-1-cyclobutyl-azetidine], the pKi is 7.05.

Molecule `CCC(Oc1ccc(Cl)cc1OC1CNC1)c1cccc(C(F)(F)F)c1` (racemic) [Example 140, (±)-3-[5-Chloro-2-[1-(3-trifluoromethyl-phenyl)-propoxy]-phenoxy]-azetidine] gave a pKi of 6.64.

As to `Cc1cc(COc2ccc(Cl)cc2OC2CNC2)n(C)n1` [Example 170, 5-[2-(Azetidin-3-yloxy)-4-chloro-phenoxymethyl]-1,3-dimethyl-1H-pyrazole], the pKi is 5.30.

As to `C[C@H](Oc1ccc(Cl)cc1OC1CN(C)C1)c1cccc(C(F)(F)F)c1` [Example 103, (S)-3-[5-Chloro-2-[1-(3-trifluoromethyl-phenyl)-ethoxy]-phenoxy]-1-methyl-azetidine], the negative-log Ki (pKi) is 7.57.
